Test in all cases: kinase profiling panel
Common to all, as to format: biochemical
Holding throughout (conditions): read-out: % Activity Remaining

For assay [1], the target named is T1, p38 delta MAPK (Homo sapiens, UniProt O15264).
T1 sequence (O15264 1-365): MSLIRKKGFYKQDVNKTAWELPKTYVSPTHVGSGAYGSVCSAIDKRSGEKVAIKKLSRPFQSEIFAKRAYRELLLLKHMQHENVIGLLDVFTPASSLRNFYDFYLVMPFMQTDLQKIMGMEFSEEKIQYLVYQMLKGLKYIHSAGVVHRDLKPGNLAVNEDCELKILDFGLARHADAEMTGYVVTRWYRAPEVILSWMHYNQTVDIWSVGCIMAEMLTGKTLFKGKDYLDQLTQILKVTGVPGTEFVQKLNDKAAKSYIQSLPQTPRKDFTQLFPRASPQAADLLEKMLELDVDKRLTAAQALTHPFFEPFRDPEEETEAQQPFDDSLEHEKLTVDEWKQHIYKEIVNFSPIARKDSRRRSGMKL
The text has this: (§1) Protein kinase profiling against a Dundee panel of 140 protein kinases was undertaken at the International Centre for Protein Kinase Profiling. The result for each kinase was presented as a mean kinase activity of the reaction taken in triplicate relative to a control sample treated with DMSO. Assay conditions and abbreviations are available at http://www.kinase-screen.mrc.ac.uk.

Assay [2] addresses CK1 gamma 2 (Homo sapiens, UniProt P78368).
Description: as §1

For assay [3], the target named is CDK2-Cyclin A (Homo sapiens, UniProt P24941).
Description: as §1

Assay [4] addresses T2, TGFBR1 (Homo sapiens, UniProt P36897).
T2 sequence (P36897 34-503): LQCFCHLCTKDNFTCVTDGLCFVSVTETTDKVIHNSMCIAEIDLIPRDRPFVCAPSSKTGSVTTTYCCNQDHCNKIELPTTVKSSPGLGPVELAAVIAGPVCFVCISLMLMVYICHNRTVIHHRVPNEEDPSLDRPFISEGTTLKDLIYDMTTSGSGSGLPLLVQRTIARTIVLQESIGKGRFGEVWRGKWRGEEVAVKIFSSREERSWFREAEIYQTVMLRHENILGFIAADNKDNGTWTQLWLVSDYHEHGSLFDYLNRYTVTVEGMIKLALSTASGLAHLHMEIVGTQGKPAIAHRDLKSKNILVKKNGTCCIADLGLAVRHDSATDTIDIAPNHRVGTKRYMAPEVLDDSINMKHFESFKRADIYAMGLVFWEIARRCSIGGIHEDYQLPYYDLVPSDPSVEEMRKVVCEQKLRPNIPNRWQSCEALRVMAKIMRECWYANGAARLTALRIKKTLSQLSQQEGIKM
Description: as §1

The target of assay [5] is T3, LKB1 (Homo sapiens, UniProt Q15831).
T3 sequence (Q15831 1-433): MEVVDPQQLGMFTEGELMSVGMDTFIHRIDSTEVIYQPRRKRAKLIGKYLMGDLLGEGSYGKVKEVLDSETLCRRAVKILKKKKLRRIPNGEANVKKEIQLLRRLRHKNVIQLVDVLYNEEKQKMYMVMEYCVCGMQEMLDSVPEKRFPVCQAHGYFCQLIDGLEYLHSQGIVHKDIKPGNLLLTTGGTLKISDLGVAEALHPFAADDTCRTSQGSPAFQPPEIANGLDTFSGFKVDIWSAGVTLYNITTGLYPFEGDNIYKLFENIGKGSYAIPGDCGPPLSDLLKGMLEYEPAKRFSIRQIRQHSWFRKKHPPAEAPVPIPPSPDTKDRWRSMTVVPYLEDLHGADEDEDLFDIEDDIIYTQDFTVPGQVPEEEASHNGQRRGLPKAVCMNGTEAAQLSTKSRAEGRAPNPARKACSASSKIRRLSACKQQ
T3 sequence (Q7RTN6 1-431 partner): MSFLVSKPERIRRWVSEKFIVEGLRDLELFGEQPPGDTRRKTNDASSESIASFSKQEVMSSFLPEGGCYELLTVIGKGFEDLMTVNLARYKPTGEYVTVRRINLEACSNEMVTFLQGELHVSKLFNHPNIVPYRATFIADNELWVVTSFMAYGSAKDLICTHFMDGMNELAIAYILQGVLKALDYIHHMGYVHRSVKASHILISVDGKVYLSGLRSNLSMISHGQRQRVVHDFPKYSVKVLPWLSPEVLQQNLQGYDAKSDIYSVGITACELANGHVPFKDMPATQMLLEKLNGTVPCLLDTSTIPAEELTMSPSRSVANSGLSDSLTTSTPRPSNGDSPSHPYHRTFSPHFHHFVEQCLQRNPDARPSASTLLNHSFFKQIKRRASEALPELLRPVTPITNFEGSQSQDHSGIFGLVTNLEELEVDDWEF
T3 sequence (Q9Y376 1-341 partner): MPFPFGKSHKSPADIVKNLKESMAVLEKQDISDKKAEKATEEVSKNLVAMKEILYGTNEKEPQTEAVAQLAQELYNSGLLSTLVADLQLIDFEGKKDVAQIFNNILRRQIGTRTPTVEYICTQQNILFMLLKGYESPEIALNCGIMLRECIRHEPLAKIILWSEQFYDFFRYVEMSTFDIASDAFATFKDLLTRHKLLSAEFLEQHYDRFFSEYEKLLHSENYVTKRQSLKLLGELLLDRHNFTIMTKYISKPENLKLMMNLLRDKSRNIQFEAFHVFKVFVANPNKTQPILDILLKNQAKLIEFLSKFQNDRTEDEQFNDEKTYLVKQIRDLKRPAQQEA
Description: as §1

Like-named read-outs stand apart in the source and are kept apart here.

Chain of CK1 gamma 2 (P78368 whole entry): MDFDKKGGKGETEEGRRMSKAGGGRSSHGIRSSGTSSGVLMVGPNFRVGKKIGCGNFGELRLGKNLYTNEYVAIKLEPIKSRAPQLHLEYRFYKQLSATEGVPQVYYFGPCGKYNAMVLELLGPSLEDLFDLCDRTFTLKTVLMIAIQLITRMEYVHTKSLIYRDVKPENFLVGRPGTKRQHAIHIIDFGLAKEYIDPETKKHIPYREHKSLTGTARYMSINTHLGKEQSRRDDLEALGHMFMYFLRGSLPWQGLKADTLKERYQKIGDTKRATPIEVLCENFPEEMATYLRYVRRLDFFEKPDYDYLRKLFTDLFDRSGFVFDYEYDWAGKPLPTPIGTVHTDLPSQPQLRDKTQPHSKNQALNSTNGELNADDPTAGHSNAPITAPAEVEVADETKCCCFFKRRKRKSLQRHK

Regarding `COc1ccc(Cl)c(S(=O)(=O)Nc2ccc(-c3nc(OC[C@H]4CNCCO4)c4c(C)n[nH]c4n3)cc2)c1` [290-R, reference compound], the remaining activity at 1 µM in assay [1] was 111%; in assay [2], 112%; in assay [3], 94%; in assay [4], 120%; in assay [5] it was 106%.
Turning to `Cc1ccc(F)c(S(=O)(=O)Nc2ccc(-c3nc(OC[C@H]4CNCCO4)c4cn[nH]c4n3)cc2)c1` [308-R, reference compound], the remaining activity at 1 µM was determined as 126% in assay [1]; 67% in assay [2]; 61% in assay [3]; 120% in assay [4]; 96% in assay [5].
As to `Cc1ccc(F)c(S(=O)(=O)Nc2ccc(-c3nc(OC[C@H]4CN(CCCCCCOCCOCCOCC(=O)N[C@H](C(=O)N5C[C@H](O)C[C@H]5C(=O)NCc5ccc(-c6scnc6C)cc5)C(C)(C)C)CCO4)c4cn[nH]c4n3)cc2)c1` [SGK3-PROTAC1], the remaining activity at 1 µM was 103% in assay [1] (1 µM); 101% in assay [2] (1 µM); 101% in assay [3] (1 µM); 124% in assay [4] (1 µM); 105% in assay [5] (1 µM).
On to `Cc1ccc(F)c(S(=O)(=O)Nc2ccc(-c3nc(OC[C@H]4CN(CCCCCCOCCOCCOCC(=O)N[C@H](C(=O)N5C[C@@H](O)C[C@H]5C(=O)NCc5ccc(-c6scnc6C)cc5)C(C)(C)C)CCO4)c4cn[nH]c4n3)cc2)c1` [cisSGK3-PROTAC1], for which the remaining activity at 1 µM worked out at 121% in assay [1] (1 µM); 106% in assay [2] (1 µM); 103% in assay [3] (1 µM); 114% in assay [4] (1 µM); 112% in assay [5] (1 µM).

Source of the values: article PMC6757289, “Design and Characterization of SGK3-PROTAC1, an Isoform Specific SGK3 Kinase PROTAC Degrader” (ACS Chemical Biology, 2019).
